Measured values reported in patent US7928090B2, “External preparation composition” (Lion Corporation, priority 2002, dated 2011).

Assays:
[1] = test system: back skin of hairless mice irradiated with UVB; experiment: Coarse texture-improving test; assay type: in vivo, hairless mice (hos: HR-1); conditions: 0.05% in ethanol/propylene glycol (7:3), 100 μL, 4 weeks; texture intersection points relative to non-irradiated group (control 24)
Method: (§1) Four (4) hairless mice per 1 group (hos: HR-1, 10 weeks of age, female) were irradiated on the back skin once a day with UVB at 40 mJ/cm^2 three times a week over a period of 6 weeks. After finishing irradiation, each 100 μL of an ethanol/propylene glycol (7:3) solution containing 0.05% of various acyl glucosamine derivatives shown in the following Table 4 or an ethanol/propylene glycol (7:3) solution as a control was applied on the mouse back in a frequency of once a day and five times a week over 4 weeks.
After finishing application, a replica agent (brand name SILFLO®; manufactured by UK FLEXICO DEVELOPMENTS LTD.) was used to obtain a replica of a mouse back skin. A replica of a UV-non-irradiated group (4 heads) was obtained as a control in the same manner.
The enlarged photographs of the respective replicas were taken through a macro lens (magnification: four times), and the photographs were used to evaluate “coarsening of the texture”.
The coarseness of the texture was defined by a “number of texture intersection point”, wherein a point in which three or more sulci cutis are joined is counted as one intersection point, and the number of the texture intersection points present in a square of 1 cm×1 cm was counted on the replica photograph.
An average point for the respective groups was calculated, and the texture-improving rate was calculated according to the following equation (III). Texture-improving rate (%)=[(number of texture intersection of applied group)/(number of texture intersection point of non-irradiated group)]×100 (III)

[2] = test system: skin roughness in the inside of a forearm of a human being; experiment: Skin roughness-improving test (SDS-induced skin roughness); assay type: in vivo; conditions: hydrophilic ointment with 0.05%, twice a day, 3 days; conductance relative to ointment with no tested substance = 100
Method: A 10% SDS solution was used to artificially form a skin roughness in the inside of a forearm of a human being, and a hydrophilic ointment blended with 0.05% of various acyl glucosamine derivatives shown in the following Table 5 was applied thereon twice a day.
The skin roughness-improving degree observed 3 days later after application was evaluated using a change in a stratum corneum water content as an index. The stratum corneum water content is measured in terms of a conductance (μS). The improving degree was shown by a relative value, wherein the conductance observed when applying the hydrophilic ointment blended with no acyl glucosamine derivative was set at 100, and the skin roughness-improving rate was calculated according to the following equation (IV). Skin roughness-improving rate (%)=[(conductance observed when applying the ointment blended with the tested substance)/(conductance observed when applying the ointment blended with no tested substance)]×100 (IV)

[3] = test system: acne patients; experiment: Acne-improvement evaluation; assay type: in vivo, human; conditions: essence with 0.05%, one month; for Evaluation X (worsened), number of subjects / Evaluation Δ (no change), number of subjects / Evaluation ⊚ (notably improved), number of subjects / Evaluation ◯ (improved), number of subjects: applied on face several times a day; for Acne treating effect: percentage of subjects rated improved or better
Method: Prepared was an essence for acne shown in the following composition example in which 0.05% of various acyl glucosamine derivatives shown in the following Table 6 was blended. An essence which was not blended with an acyl glucosamine derivative was prepared as a control.
Sixty acne patients were picked up as subjects to apply everyday the respective essences on the faces thereof several times a day, and the therapeutic effect against the acnes was visually evaluated a month later according to four degrees of the following evaluation criteria.
In the four degree evaluation described above, improvement (∘) or better effect (⊚) was regarded as “effective for treating acnes”, and the subjects showing a treating effect were shown by a numerical value (percentage).

[4] = test system: pigmentation on the backs of color guinea pigs; experiment: Whitening evaluation (UV-induced pigmentation); assay type: in vivo; design: key: +++: notably improved; ++: improved; +: a little improved; ±: no change; conditions: 0.05% in ethanol/propylene glycol (7:3), 30 μL once a day, five times a week, 4 weeks; visual change in pigmentation
Method: Back body hair of color guinea pigs were shaved by means of a hair clipper and a shaver, and they were irradiated with UV rays once a day, 4 times a week and 8 times in total, whereby 4 parts of pigmentation having an area of about 2.25 cm^2 were formed on the backs of the respective guinea pigs.
Each 30 μL of an ethanol/propylene glycol (7:3) solution containing 0.05% of various acyl glucosamine derivatives shown in the following Table 7 was applied thereon in a frequency of once a day and five times a week over 4 weeks, and a change in the pigmentation was visually evaluated according to four degrees of the following evaluation criteria. The solution containing no acyl glucosamine derivative was used for a comparative example.

[5] = test system: guinea pig skin; experiment: Continuous irritative test of guinea pig skin (Draize method); assay type: in vivo, guinea pig (Hartley series); conditions: Table 1; 0.5% in ethanol/propylene glycol (7:3), 50 μL once a day, 3 days straight; total of erythema and edema, full marks 8 points
Method: Each left and right two spots (4 spots/head) of applying parts having a frame of 2 cm×2 cm were provided on the back of a shaved guinea pig (Hartley series, 7 weeks of age, female, N=10), and each 50 μL of an ethanol/propylene glycol (7:3) solution containing 0.5% of the respective acyl glucosamine derivatives shown in the following Table 1 was applied once a day on the respective frames.
A skin irritative score after application for 3 days straight was evaluated according to the following evaluation criteria (Draize method). The above irritative score was shown by the total points (full marks: 8 points) of erythema and edema.
Evaluation Criteria of Skin Irritative Score:
3: middle to strong erythema
4: very strong erythema to crust
1: very slight edema formation
2: slight edema formation
3: middle edema formation
4: strong edema formation

[6] = test system: back skin of hairless mice irradiated with UVB; experiment: Wrinkle-improving test; assay type: in vivo, hairless mice (hos: HR-1); conditions: 0.05% in ethanol/propylene glycol (7:3), 100 μL once a day, five times a week, 8 weeks; versus control group
Method: as §1, with “at 50” for “at 40”, “mJ/cm^2 five” for “mJ/cm^2 three”, “of 10” for “of 6”, “Table 3” for “Table 4 or an ethanol/propylene glycol (7:3) solution as a control”, “over 8” for “over 4”
After finishing application for 8 weeks, the degree of wrinkles was visually evaluated according to the following evaluation criteria and calculation equation. A control group applied with the ethanol/propylene glycol (7:3) solution was evaluated as a control in the same manner.
Evaluation Criteria of the Degree of Wrinkles:
Evaluation point 0: a lot of fine striations is present on the back and the flank; fine striations run in a direction from the head to the tail; and the striations appear or disappear with the motion of the mouse.
Evaluation point 1: all fine striations along the spine are not observed; a few shallow and coarse wrinkles run perpendicularly to the head-to-tail direction; and the striations appear or disappear with the motion of the mouse.
The respective bodies were evaluated by an evaluation point of a 0.5 unit to calculate an average point for the respective groups, and the wrinkle-improving rate was calculated for the respective groups according to the following equation (II). Wrinkle-improving rate (%)=[(average value of the control group−average value of a glucosamine derivative-applied group)/(average value of the control group)]×100 (II)

Compound | Texture-improving rate [1] [%] | Skin roughness-improving rate [2] [%] | Evaluation X (worsened), number of subjects [3] | Evaluation Δ (no change), number of subjects [3] | Evaluation ⊚ (notably improved), number of subjects [3] | Evaluation ◯ (improved), number of subjects [3] | Acne treating effect [3] [%] | Whitening-improving effect [4] | Draize score [5] [points] | Wrinkle-improving rate [6] [%]
CCCCCCCCCCCCCCCCCCOCCOCCOCCOCCOCCOC(=O)N[C@H]1C(O)O[C@H](CO)[C@@H](O)[C@@H]1O (stereo partly drawn) [N-POE (5) octadecyletheroxycarbonyl-D-glucosamine] | 92 | 128 | 0 | 3 | 0 | 2 | 40 | ++ | 0.2 | 73
CCCCCCCCCCCCCCCCCCCCCCOCCOCCOCCOCCOCCOCCOCCOCCOCCOCCOC(=O)N[C@H]1C(O)O[C@H](CO)[C@@H](O)[C@@H]1O (stereo partly drawn) [N-POE (10) docosyletheroxycarbonyl-D-glucosamine] | 88 | 138 | 0 | 3 | 0 | 2 | 40 | ++ | 0.1 | 82
